US11147272B2, “Pyridone compounds and agricultural and horticultural fungicides comprising the same as active ingredients” (MITSUI CHEMICALS AGRO, INC., priority 2017, dated 2021)

Key:
Magnaporthe grisea = test: whole plant or invertebrate; format: in vivo; conditions: for Test A control value class: class of control value
Alternaia brassicicola = test: Test Example C: Alternaria sooty spot on cabbage; format: in vivo; conditions: for Test C control value class: class of control value
Source text: Seeds of a test plant (cabbage variety: Shikidori) were planted and cultivated until the cotyledons extended.
<Control Value> Control value=100{1−(n/3)}

Puccinia recondita = test: Test Example E: Brown rust on wheat; format: in vivo; conditions: for Test E control value class: class of control value
Phytophthora infestans = test: whole plant or invertebrate; format: in vivo; conditions: for Test F control value class: class of control value
Botrytis cinerea = test: Test Example B: Gray mold on tomato; conditions: for Test B control value class: class of control value
Plasmopara viticola = test: Test Example G: Downy mildew on vine; conditions: for Test G control value: 7 to 10 days after inoculation; for Test G control value class: Downy mildew on vine (Neomuscat), 2.5 ml/pot, assessed 7 to 10 days after inoculation
[1] = system: Colletotrichum orbiculare; test: Test Example H: Anthracnose on cucumber; conditions: for Test H control value: 6 to 10 days after inoculation; for Test H control value class: Anthracnose on cucumber (Sagami Hanjiro), 2.5 ml/pot, assessed 6 to 10 days after inoculation
[2] = system: Blumeria graminis f. sp. hordei; test: Test Example D: Powdery mildew on barley; conditions: for Test D control value class: class of control value
[3] = Blast on rice, control value class
[4] = Alternaria sooty spot on cabbage, control value class
[5] = Brown rust on wheat, control value class
[6] = Late blight on tomato, control value class
[7] = Gray mold on tomato, control value class
[8] = Downy mildew on vine, 250 ppm spray
[9] = Anthracnose on cucumber, 250 ppm spray
[10] = Powdery mildew on barley, control value class
[11] = Alternaria sooty spot on cabbage
[12] = 250 ppm drug solution sprayed on test plant
[13] = 250 ppm drug solution sprayed (2.5 ml/pot), grape Neomuscat
[14] = 250 ppm drug solution sprayed (2.5 ml/pot), cucumber Sagami Hanjiro

| SMILES | Test A control value (Magnaporthe grisea; [3]) | Test C control value (Alternaia brassicicola; [4]) | Test E control value (Puccinia recondita; [5]) | Test F control value (Phytophthora infestans; [6]) | Test B control value (Botrytis cinerea; [7]) | Test G control value (Plasmopara viticola; [8]) | Test H control value [1, 9] | Test D control value [2, 10] | Test A control value class (Magnaporthe grisea; Blast on rice) | Test C control value class (Alternaia brassicicola; [11]) | Test E control value class (Puccinia recondita; Brown rust on wheat) | Test F control value class (Phytophthora infestans; Late blight on tomato) | Test B control value class (Botrytis cinerea; Gray mold on tomato) | Test G control value class (Plasmopara viticola; 250 ppm spray) | Test H control value class ([1]; 250 ppm spray) | Test D control value class ([2]; Powdery mildew on barley) | also measured |
| --- | --- | --- | --- | --- | --- | --- | --- | --- | --- | --- | --- | --- | --- | --- | --- | --- | --- |
| CCc1ccc(=O)n(CC)c1-c1ccc(OC)cc1Cl [compound 319] | L (50% or less control value) | H (more than 50% control value) | H (more than 50% control value) | L (50% or less control value) | H (more than 50% control value) | L (50% or less control value) | H (more than 50% control value) | H (more than 50% control value) | – | – | – | – | – | – | – | – | – |
| CCn1c(-c2c(F)cc(F)cc2F)c(CN(OC)C(C)=O)cc(Cl)c1=O [compound 132] | – | – | – | – | – | – | – | – | H (more than 50% control value) | H (more than 50% control value) | L (50% or less control value) | L (50% or less control value) | L (50% or less control value) | L (50% or less control value) | L (50% or less control value) | L (50% or less control value) | – |
| CC(C)Cc1ccc(=O)n(CC(F)F)c1-c1c(F)cc(F)cc1F [compound 297] | L (50% or less control value) | H (more than 50% control value) | H (more than 50% control value) | L (50% or less control value) | H (more than 50% control value) | H (more than 50% control value) | L (50% or less control value) | H (more than 50% control value) | – | – | – | – | – | – | – | – | – |
| CCn1c(-c2c(F)cc(OC)cc2F)c(COC(C)C)cc(Cl)c1=O [compound 60] | – | – | – | – | – | – | – | – | H (more than 50% control value) | H (more than 50% control value) | H (more than 50% control value) | L (50% or less control value) | H (more than 50% control value) | H (more than 50% control value) | H (more than 50% control value) | H (more than 50% control value) | – |
| CCn1c(-c2c(F)cc(F)cc2F)c(C(C)(OC)C(C)C)cc(Cl)c1=O (racemic) [compound 107] | – | – | – | – | – | – | – | – | H (more than 50% control value) | H (more than 50% control value) | H (more than 50% control value) | L (50% or less control value) | H (more than 50% control value) | H (more than 50% control value) | H (more than 50% control value) | H (more than 50% control value) | – |
| CCn1c(-c2ccc(Br)cc2F)c(CC(C)C)cc(Cl)c1=O [compound 143] | – | – | – | – | – | – | – | – | H (more than 50% control value) | H (more than 50% control value) | H (more than 50% control value) | L (50% or less control value) | H (more than 50% control value) | H (more than 50% control value) | H (more than 50% control value) | H (more than 50% control value) | – |
| CCn1c(-c2c(F)cc(F)cc2F)c(C(C)(O)C(C)C)cc(Br)c1=O (centres unmarked) [compound 381] | – | – | – | – | – | – | – | – | – | – | – | – | – | – | – | – | Test A control value (Magnaporthe grisea; [12]): H (more than 50% control value); Test C control value (Alternaia brassicicola; [12]): H (more than 50% control value); Test E control value (Puccinia recondita; [12]): H (more than 50% control value); Test F control value (Phytophthora infestans; [12]): H (more than 50% control value); Test B control value (Botrytis cinerea; [12]): H (more than 50% control value); Test G control value (Plasmopara viticola; [13]): H (more than 50% control value); Test H control value [1, 14]: H (more than 50% control value); Test D control value [2, 12]: H (more than 50% control value) |
| CCn1c(-c2c(F)cc(F)cc2F)c(C(O)C(C)C)cc(Br)c1=O (centres unmarked) [compound 365] | H (more than 50% control value) | H (more than 50% control value) | H (more than 50% control value) | L (50% or less control value) | H (more than 50% control value) | H (more than 50% control value) | H (more than 50% control value) | H (more than 50% control value) | – | – | – | – | – | – | – | – | – |
| CCn1c(-c2c(F)cc(OC)cc2F)c(C(C)(O)CC)cc(Cl)c1=O (centres unmarked) [compound 59] | – | – | – | – | – | – | – | – | H (more than 50% control value) | H (more than 50% control value) | H (more than 50% control value) | L (50% or less control value) | H (more than 50% control value) | H (more than 50% control value) | H (more than 50% control value) | H (more than 50% control value) | – |
| CCn1c(-c2ccc(F)cc2C)c(CC(C)C)cc(Cl)c1=O [compound 203] | H (more than 50% control value) | H (more than 50% control value) | H (more than 50% control value) | H (more than 50% control value) | H (more than 50% control value) | H (more than 50% control value) | H (more than 50% control value) | H (more than 50% control value) | – | – | – | – | – | – | – | – | – |
| CCCC1=C(c2ccc(F)cc2Cl)N(CC)C(=S)CC1 [compound 315] | L (50% or less control value) | L (50% or less control value) | L (50% or less control value) | L (50% or less control value) | L (50% or less control value) | L (50% or less control value) | L (50% or less control value) | H (more than 50% control value) | – | – | – | – | – | – | – | – | – |
| CCCc1ccc(=O)n(CC)c1-c1c(F)cc(O)cc1F [compound 438] | – | – | – | – | – | – | – | – | – | – | – | – | – | – | – | – | Test A control value (Magnaporthe grisea; [12]): L (50% or less control value); Test C control value (Alternaia brassicicola; [12]): H (more than 50% control value); Test E control value (Puccinia recondita; [12]): H (more than 50% control value); Test F control value (Phytophthora infestans; [12]): L (50% or less control value); Test B control value (Botrytis cinerea; [12]): H (more than 50% control value); Test G control value (Plasmopara viticola; [13]): L (50% or less control value); Test H control value [1, 14]: L (50% or less control value); Test D control value [2, 12]: L (50% or less control value) |
| CCn1c(-c2ccc(Br)cc2F)c(CC(C)C)cc(Br)c1=O [compound 142] | – | – | – | – | – | – | – | – | H (more than 50% control value) | H (more than 50% control value) | H (more than 50% control value) | L (50% or less control value) | H (more than 50% control value) | H (more than 50% control value) | H (more than 50% control value) | H (more than 50% control value) | – |
| CCC(OC)c1cc(Cl)c(=O)n(CC)c1-c1c(F)cc(F)cc1F (centres unmarked) [compound 47] | – | – | – | – | – | – | – | – | H (more than 50% control value) | H (more than 50% control value) | H (more than 50% control value) | L (50% or less control value) | H (more than 50% control value) | H (more than 50% control value) | H (more than 50% control value) | H (more than 50% control value) | – |
| CCn1c(-c2c(F)cc(F)cc2F)c(C(=O)C(C)C)ccc1=O [compound 454] | – | – | – | – | – | – | – | – | – | – | – | – | – | – | – | – | Test A control value (Magnaporthe grisea; [12]): L (50% or less control value); Test C control value (Alternaia brassicicola; [12]): H (more than 50% control value); Test E control value (Puccinia recondita; [12]): H (more than 50% control value); Test F control value (Phytophthora infestans; [12]): L (50% or less control value); Test B control value (Botrytis cinerea; [12]): H (more than 50% control value); Test G control value (Plasmopara viticola; [13]): L (50% or less control value); Test H control value [1, 14]: H (more than 50% control value); Test D control value [2, 12]: H (more than 50% control value) |
| CCn1c(-c2c(F)cc(F)cc2F)c(CN(C)C(C)C)cc(Cl)c1=O [compound 86] | – | – | – | – | – | – | – | – | L (50% or less control value) | H (more than 50% control value) | L (50% or less control value) | L (50% or less control value) | L (50% or less control value) | L (50% or less control value) | L (50% or less control value) | L (50% or less control value) | – |
